Patent publication US20120190751A1, “COMPOUNDS FOR TREATMENTS OF INFLAMMATION” (ANA-MAR AB, priority 2009, published 2012)

Experiments:
5-HT2C receptor [1] = target: T1, 5-HT2C receptor (Homo sapiens, UniProt P28335); assay: 5-HT2C GTPγS binding assay (functionality); assay type: biochemical; conditions: FIG. 2, read-out: IC50, antagonistic effect on 5-HT2C
T1 sequence (P28335 33-458): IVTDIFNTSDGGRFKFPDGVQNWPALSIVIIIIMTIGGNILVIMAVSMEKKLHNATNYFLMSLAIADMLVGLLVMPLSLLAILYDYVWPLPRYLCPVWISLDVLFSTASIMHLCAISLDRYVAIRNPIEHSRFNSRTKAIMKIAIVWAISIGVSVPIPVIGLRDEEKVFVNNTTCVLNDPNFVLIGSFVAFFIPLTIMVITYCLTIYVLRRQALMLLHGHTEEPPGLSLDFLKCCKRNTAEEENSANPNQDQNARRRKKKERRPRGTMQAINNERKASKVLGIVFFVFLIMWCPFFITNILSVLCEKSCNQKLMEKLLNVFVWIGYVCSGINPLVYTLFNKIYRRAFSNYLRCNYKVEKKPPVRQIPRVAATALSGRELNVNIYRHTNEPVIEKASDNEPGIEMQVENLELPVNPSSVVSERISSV
Description: FIG. 2. Antagonistic effect of N-(2-chloro-3,4-dimethoxybenzylideneamino)guanidine on 5-HT2B and 5-HT2C receptors. The functionality of the compound was evaluated with the 5-HT2B tissue assay and the 5-HT2C GTPγS binding assay methods.
(§1) N-(2-chloro-3,4-dimethoxybenzylideneamino)guanidine was further tested for functionality against 5-HT2B (Cohen et al. (1987), J. Pharmacol. Exp. Ther. 243:264-269), 5-HT2C (Adlersber M, et al. (2000), J. Neurosci. Res. 61(6):674-685; Cussac D. et al. (2002), Mol. Pharmacol. 62(3):578-589) and 5-HT4 (Reeves et al. (1991), Br. J. Pharmacol. 103:1067-1072).

5-HT4 receptor = 5-HT4 receptor (Rattus norvegicus, UniProt Q62758); assay: 5-HT4 functionality test; conditions: at 100 μM
From the text: as §1

5-HT7 receptor = 5-HT7 receptor (Homo sapiens, UniProt P34969); assay: Radio-ligand binding assay 5-HT7; conditions: 10 μM compound; [3H] LSD 2.5 nM; human rec. CHO cells
Description: (§2) Determination of binding affinities for various 5-HT receptors was performed by radio-ligand binding assays. Briefly, tissue or cells expressing the receptor of interest were suspended in incubation buffer and radio-ligands and 10 μM N-(2-chloro-3,4-dimethoxybenzylidene-amino)guanidine were added. After incubation, separation of bound and free radio-ligand was done by multiple washings with buffer.
(§3) The results were presented as the percent inhibition of specific binding. The IC50 values were determined by a non-linear least square regression analysis using MathIQ™ (ID Business Solution Ltd., UK). The inhibition constants (Ki) were calculated using the equation of Cheng and Prusoff (Cheng Y, Prusoff W H, Biochem. Pharmacol. 22:3099-3108, 1973) using the observed IC50 of the tested compound, the concentration of radioligand employed in the assay and the historical values for the KD of the ligand.

5-HT2C receptor [2] = target: T1, 5-HT2C receptor; assay: Radio-ligand binding assay 5-HT2C
Description: as §2, §3

5-HT5A receptor = 5-HT5A receptor (Homo sapiens, UniProt P47898); assay: Radio-ligand binding assay 5-HT5A; conditions: 10 μM compound; [3H] LSD 1 nM; human rec. HEK293 cells
Description: as §2, §3

5-HT3 receptor = target: T2, 5-HT3 receptor (Homo sapiens, UniProt P46098); assay: Radio-ligand binding assay 5-HT3; conditions: 10 μM compound; [3H] GR65630 35 nM; human rec. HEK293 cells
T2 sequence (P46098 24-478): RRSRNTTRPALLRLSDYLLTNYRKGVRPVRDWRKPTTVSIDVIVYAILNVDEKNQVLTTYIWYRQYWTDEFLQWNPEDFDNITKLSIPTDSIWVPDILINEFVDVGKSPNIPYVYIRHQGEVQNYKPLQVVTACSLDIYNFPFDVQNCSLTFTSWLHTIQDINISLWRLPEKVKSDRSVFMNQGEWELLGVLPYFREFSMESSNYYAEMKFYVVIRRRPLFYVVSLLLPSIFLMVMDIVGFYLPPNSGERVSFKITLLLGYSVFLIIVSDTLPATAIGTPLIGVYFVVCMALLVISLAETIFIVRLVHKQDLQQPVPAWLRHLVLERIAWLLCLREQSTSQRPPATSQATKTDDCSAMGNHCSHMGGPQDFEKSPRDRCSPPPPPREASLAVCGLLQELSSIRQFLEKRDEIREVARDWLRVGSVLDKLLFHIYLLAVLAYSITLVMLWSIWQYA
Description: as §2, §3

5-HT5A receptor, sequence (P47898 whole entry): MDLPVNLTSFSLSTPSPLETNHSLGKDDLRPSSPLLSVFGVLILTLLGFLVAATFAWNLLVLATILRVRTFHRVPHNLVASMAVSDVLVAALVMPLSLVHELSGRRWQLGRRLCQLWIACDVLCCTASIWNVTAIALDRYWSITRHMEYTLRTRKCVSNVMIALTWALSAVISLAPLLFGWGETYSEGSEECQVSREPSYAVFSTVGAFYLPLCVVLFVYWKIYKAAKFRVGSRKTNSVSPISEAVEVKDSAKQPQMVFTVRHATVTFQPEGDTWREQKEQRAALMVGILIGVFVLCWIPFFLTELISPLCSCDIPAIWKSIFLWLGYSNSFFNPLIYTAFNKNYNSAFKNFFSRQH
5-HT7 receptor, sequence (P34969 whole entry): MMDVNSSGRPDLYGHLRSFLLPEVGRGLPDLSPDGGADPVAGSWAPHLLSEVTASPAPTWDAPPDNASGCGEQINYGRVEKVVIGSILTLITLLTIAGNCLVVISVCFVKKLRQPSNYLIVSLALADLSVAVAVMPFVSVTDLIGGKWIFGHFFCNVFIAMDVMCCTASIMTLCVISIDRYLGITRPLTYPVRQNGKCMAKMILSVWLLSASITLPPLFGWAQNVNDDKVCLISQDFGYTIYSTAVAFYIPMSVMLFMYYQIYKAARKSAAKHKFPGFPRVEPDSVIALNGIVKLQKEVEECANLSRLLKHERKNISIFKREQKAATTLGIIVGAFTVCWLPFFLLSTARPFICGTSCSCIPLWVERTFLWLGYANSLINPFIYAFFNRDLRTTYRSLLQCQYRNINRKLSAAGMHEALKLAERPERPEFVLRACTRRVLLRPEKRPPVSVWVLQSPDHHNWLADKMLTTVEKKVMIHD
5-HT4 receptor, sequence (Q62758 whole entry): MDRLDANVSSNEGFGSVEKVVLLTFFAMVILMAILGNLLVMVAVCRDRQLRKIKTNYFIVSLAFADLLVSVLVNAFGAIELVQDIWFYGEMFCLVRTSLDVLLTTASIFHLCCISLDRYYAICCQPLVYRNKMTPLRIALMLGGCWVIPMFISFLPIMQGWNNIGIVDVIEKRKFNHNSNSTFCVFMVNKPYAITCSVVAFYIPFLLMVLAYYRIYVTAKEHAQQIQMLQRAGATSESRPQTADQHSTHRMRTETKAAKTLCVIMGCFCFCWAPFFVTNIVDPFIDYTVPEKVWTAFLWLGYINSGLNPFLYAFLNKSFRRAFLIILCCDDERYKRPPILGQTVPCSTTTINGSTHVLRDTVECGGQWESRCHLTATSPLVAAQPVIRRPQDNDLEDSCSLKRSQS

How did the IC50 (5-HT2C receptor [1]) turn out when `COc1ccc(C=NNC(=N)N)c(Cl)c1OC` [N-(2-chloro-3,4-dimethoxybenzylideneamino)guanidine] was run?
Its IC50 is 16.5 µM.

What about the “effect on 5-HT4 (functionality)” value (5-HT4 receptor) of the same compound?
The value was “no significant effect”.

What about the inhibition at 10 µM (5-HT7 receptor) of the same compound?
The inhibition at 10 µM was 53%.

What about the inhibition at 10 µM (5-HT2C receptor [2]) of the same compound?
Its inhibition at 10 µM is 80%.

And the Ki (5-HT2C receptor [2]; 10 different concentrations, Cheng-Prusoff, FIG. 1)?
Its Ki is 0.88 µM.

And the inhibition at 10 µM (5-HT5A receptor)?
Its inhibition at 10 µM is 54%.

And the inhibition at 10 µM (5-HT3 receptor)?
Its inhibition at 10 µM is 3.3%.
